Source: US6362212B1, “Oxime derivative and bactericide containing the same as active ingredient” (Shionogi & Company, Ltd., priority 1994, dated 2002)

Tests used:
Type in all cases: in vivo
[1] = test system: Sphaerotheca fuliginea; experiment: Controlling effect on Sphaerotheca fuliginea by foliage application (pot experiment); conditions: foliage spray on cucumber (cv. TSUKUBASHIROIBO) first leaves, infected area after 10 days in greenhouse at 20° C.
Summary of the method: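 First leaves of cucumber seedlings, 2-3 weeks old, were sprayed with compound (DMF solution diluted in water with spreader). They were inoculated 24 h later with a Sphaerotheca fuliginea conidia spray and kept 10 days at 20° C in a greenhouse. Percent control was calculated from infected leaf area.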

[2] = test system: Erysiphe graminis f. sp. tritici; experiment: Controlling effect on Erysiphe graminis f. sp. tritici by foliage application (pot experiment); conditions: foliage spray on wheat (cv. NORIN No. 61) seedlings, infected area after 10 days in greenhouse at 20° C.
Summary of the method: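 Wheat seedlings (cv. NORIN No. 61, 2-3 weeks old) sprayed with compound in DMF diluted in water with spreader, then inoculated with conidia 24 hours later. Kept in greenhouse at 20 °C for 10 days; percent control calculated from infected leaf area.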

[3] = test system: Pyricularia oryzae; conditions: foliage spray on rice seedlings (cv. […]), number of lesions six days after the inoculation
[4] = test system: Puccinia coronata; experiment: Controlling effect on Puccinia coronata by foliage application (pot experiment); conditions: foliage spray on oat (cv. PC-38) seedlings, infected area after 1 day moist chamber and 8 days greenhouse at 20° C.
Protocol: The following Test Examples illustrate the effects of the fungicide of the present invention. (I. Controlling effects on various plant diseases by foliage application (pot experiment)) A test compound was dissolved in a small amount of N,N-dimethylformamide, and the solution was diluted to a given concentration with distilled water containing a spreader. Thus, a liquid sample to be tested was prepared. The liquid sample was sprayed to test plants, and 24 hours thereafter, pathogens were inoculated by the method described below. […] The seeds of oat (cv.: PC-38) were sown in plastic cups (each 9 cm in diameter), followed by cultivation for 2 to 3 weeks. The test compound in the form of a solution or suspension was sprayed to the seedlings. Spores of Puccinia coronata cultured on oat leaves were collected, diluted about 10-fold with talc, and sprayed to the test plants to inoculate the plants with the pathogen. After the inoculation, the plants were kept in a moist chamber at 20° C. for 1 day and then in a greenhouse at 20° C. for 8 days. The infected area on the leaf was observed, and the percent control was calculated.

Compound: CON=C(c1cc(C)on1)c1ccccc1COc1cc(C)ccc1C (mixture of isomers) [Compound No. 436]
- Controlling effect on Sphaerotheca fuliginea by foliage application at 500 ppm (percent control) [1]: 100 percent control
- Controlling effect on ErYsiphe graminis f. sp. tritici by foliage application at 500 ppm (percent control) [2]: 90 percent control
- Controlling effect on PYricularia orYzae by foliage application at 500 ppm (percent control) [3]: 70 percent control
- Controllng effect on Puccinia coronata by foliage application at 500 ppm (percent control) [4]: 90 percent control

Compound: CON=C(c1ccon1)c1ccccc1COc1ccccc1C (mixture of isomers) [compound 312]
- Controlling effect on Sphaerotheca fuliginea by foliage application at 500 ppm (percent control) [1]: 100 percent control
- Controlling effect on ErYsiphe graminis f. sp. tritici by foliage application at 500 ppm (percent control) [2]: 100 percent control
- Controlling effect on PYricularia orYzae by foliage application at 500 ppm (percent control) [3]: 70 percent control
- Controllng effect on Puccinia coronata by foliage application at 500 ppm (percent control) [4]: 97 percent control

Compound: CON=C(C1=NOCC1)c1ccccc1COc1cc(C)ccc1C (mixture of isomers) [compound 1236]
- Controlling effect on Sphaerotheca fuliginea by foliage application at 500 ppm (percent control) [1]: 100 percent control
- Controlling effect on ErYsiphe graminis f. sp. tritici by foliage application at 500 ppm (percent control) [2]: 90 percent control
- Controlling effect on PYricularia orYzae by foliage application at 500 ppm (percent control) [3]: 97 percent control
- Controllng effect on Puccinia coronata by foliage application at 500 ppm (percent control) [4]: 97 percent control

Compound: CON=C(c1ccccc1COc1cc(C)ccc1C)c1nccn1C (single isomer, unassigned) [136A]
- Controlling effect on Sphaerotheca fuliginea by foliage application at 500 ppm (percent control) [1]: 100 percent control
- Controlling effect on ErYsiphe graminis f. sp. tritici by foliage application at 500 ppm (percent control) [2]: 90 percent control
- Controlling effect on PYricularia orYzae by foliage application at 500 ppm (percent control) [3]: 90 percent control
- Controllng effect on Puccinia coronata by foliage application at 500 ppm (percent control) [4]: 100 percent control

Compound: CON=C(c1ccccc1COc1cc(C)ccc1C)c1nccn1C (single isomer, unassigned) [136B]
- Controlling effect on Sphaerotheca fuliginea by foliage application at 500 ppm (percent control) [1]: 100 percent control
- Controlling effect on ErYsiphe graminis f. sp. tritici by foliage application at 500 ppm (percent control) [2]: 70 percent control
- Controlling effect on PYricularia orYzae by foliage application at 500 ppm (percent control) [3]: 70 percent control
- Controllng effect on Puccinia coronata by foliage application at 500 ppm (percent control) [4]: 97 percent control

Compound: CON=C(c1ccccc1Oc1ccccc1)c1nccn1C [compound 161]
- Controlling effect on Sphaerotheca fuliginea by foliage application at 500 ppm (percent control) [1]: 100 percent control
- Controlling effect on ErYsiphe graminis f. sp. tritici by foliage application at 500 ppm (percent control) [2]: 70 percent control
- Controllng effect on Puccinia coronata by foliage application at 500 ppm (percent control) [4]: 97 percent control

Compound: CCON=C(c1ccccc1COc1ccccc1)n1cncn1 [compound 275]
- Controlling effect on Sphaerotheca fuliginea by foliage application at 500 ppm (percent control) [1]: 100 percent control
- Controlling effect on ErYsiphe graminis f. sp. tritici by foliage application at 500 ppm (percent control) [2]: 90 percent control
- Controllng effect on Puccinia coronata by foliage application at 500 ppm (percent control) [4]: 90 percent control

Compound: C=CCON=C(c1ccccc1COc1ccccc1)n1cncn1 [compound 278]
- Controlling effect on Sphaerotheca fuliginea by foliage application at 500 ppm (percent control) [1]: 97 percent control
- Controlling effect on ErYsiphe graminis f. sp. tritici by foliage application at 500 ppm (percent control) [2]: 90 percent control
- Controllng effect on Puccinia coronata by foliage application at 500 ppm (percent control) [4]: 90 percent control

Compound: CON=C(C1=NCCN1)c1ccccc1COc1cc(C)ccc1C [compound 1478]
- Controlling effect on Sphaerotheca fuliginea by foliage application at 500 ppm (percent control) [1]: 70 percent control
- Controlling effect on ErYsiphe graminis f. sp. tritici by foliage application at 500 ppm (percent control) [2]: 90 percent control
- Controllng effect on Puccinia coronata by foliage application at 500 ppm (percent control) [4]: 70 percent control
